The source of these data is patent publication US6825181B1, “Aminoisoquinoline derivatives” (Ajinomoto Co., Inc., priority 1998, dated 2004).

Holding throughout (assay type): biochemical
For assay [1], the system named is blood plasma from healthy people (prothrombin time). In words: Determination of blood anticoagulating activity by prothrombin time (PT) determination method. The settings on record: negative logarithm of concentration which elongated PT of the control to twice as long; human blood plasma. On the procedure: Determination of Blood Anticoagulating Activity:
The blood anticoagulating activity was determined by a prothrombin time (PT) determination method. The PT was determined as follows: The blood was taken from healthy people. 3.8% aqueous trisodium citrate solution was added to the blood in a volume ratio of 1:10. The blood plasma was separated by the centrifugation. 5 μl of DMSO solution containing a test compound was added to 45 μl of the blood plasma. After the incubation at room temperature for 2 minutes, a test tube containing the blood plasma solution was placed in Sysmex CA-3000 fully automatic blood coagulation determination device (a product of To a Medical Electronics Co., Ltd.), and incubated at 37° C. for 3 minutes. 100 μl of Sysmex PT II (rabbit brain tissue thromboplastin, 13.2 mM calcium chloride; a product of To a Medical Electronics Co., Ltd.) was fed into the test tube. PT was automatically determined with the device. A sample containing […] of DMSO in place of the solution of the test compound was used as the control. The negative logarithm (PT2) of the concentration of the test compound which elongated PT of the control to the twice as long was determined, and employed as the index of the blood anticoagulating activity.

Assay [2] concerns the target T1, activated human blood coagulation factor X (Homo sapiens, UniProt P00742).
T1 construct: purchased Enzyme Research Co
In words: Determination of activity of inhibiting the activated blood-coagulation factor X. The note with it: negative logarithm of concentration inhibiting 50% of initial rate; pH 8.4, room temperature; read-out: Activity of inhibiting activated blood coagulation factor X (pIC50) (converted). On the procedure:
Determination of Activity of Inhibiting the Activated Blood-Coagulation Factor X
130 μl of 100 mM tris hydrochloride buffer adjusted to pH 8.4 was added to 10 μl of an aqueous solution of a compound to be tested. Then 10 μl of a 0.5 unit/ml solution of activated human blood coagulation factor X (a product of Enzyme Research Co.) in tris hydrochloride of pH 8.4 was added to the resultant mixture. After the incubation at room temperature for 10 minutes, 50 μl of a solution of N-benzoyl-L-isoleucyl-L-glutamyl-glycyl-L-arginyl-P-nitroanilide hydrochloride (a product of Peptide Institute, Inc.) adjusted to 0.8 mM with tris hydrochloride (pH 8.4) was added thereto. The absorbance was determined and then the initial reaction rate was determined. A control was prepared in the same manner as that described above except that the solution of the compound to be tested was replaced with 10 μl of tris hydrochloride buffer adjusted to pH 8.4. The absorbance was determined with MICROPLATE READER Model 3550-UV (a product of BIO RAD) at a wave length of 405 nm at intervals of 15 seconds for 16 minutes.

A further assay deals with T2, human thrombin (Homo sapiens, UniProt P00734).
T2 construct: solution of human thrombin (a product of SIGMA Co.); purchased SIGMA Co
In words: Determination of thrombin-inhibiting activity. The settings on record: negative logarithm of concentration inhibiting 50% of initial rate; substrate S-2238, pH 8.4; read-out: Thrombin-inhibiting activity (pIC50) (converted). The protocol: Determination of Thrombin-Inhibiting Activity:
130 μl of 100 mM tris hydrochloride buffer adjusted to pH 8.4 was added to 10 μl of an aqueous solution of a test compound. Then 10 μl of a solution of human thrombin (a product of SIGMA Co.) adjusted to 2 units/ml with tris hydrochloride buffer of pH 8.4 was added to the resultant mixture. After the incubation at room temperature for 10 minutes, 50 μl of a solution of D-phenylalanyl-L-pipecolyl-L-arginyl-P-nitroanilide dihydrochloride (S-2238; a product of Daiichi Kagaku Yakuhin Co.) adjusted to 0.4 mM with tris hydrochloride buffer of pH 8.4 was added thereto. The absorbance was determined and then the initial reaction rate was determined. A control was prepared in the same manner as that described above except that the solution of the compound to be tested was replaced with 10 μl of tris hydrochloride buffer adjusted to pH 8.4. The absorbance was determined with MICROPLATE READER Model 3550-UV (a product of […]) at a wave length of 405 nm at intervals of 15 seconds for 16 minutes. The negative logarithm (pIC50) of a concentration of the test compound which inhibits 50% of the activity (initial rate) of the thrombin in the absence of the test compound was determined, and employed as the index of the activity of inhibiting thrombin.

T1 sequence (P00742 235-488 limits assumed): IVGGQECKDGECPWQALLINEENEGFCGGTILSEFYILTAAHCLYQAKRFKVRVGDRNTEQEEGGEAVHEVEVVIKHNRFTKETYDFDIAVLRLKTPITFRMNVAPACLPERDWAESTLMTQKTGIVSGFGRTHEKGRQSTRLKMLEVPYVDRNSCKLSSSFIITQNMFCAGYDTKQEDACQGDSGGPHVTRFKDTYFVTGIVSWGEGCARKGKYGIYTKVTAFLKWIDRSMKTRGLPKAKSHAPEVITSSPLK
T1 sequence (P00742 41-179 partner limits assumed): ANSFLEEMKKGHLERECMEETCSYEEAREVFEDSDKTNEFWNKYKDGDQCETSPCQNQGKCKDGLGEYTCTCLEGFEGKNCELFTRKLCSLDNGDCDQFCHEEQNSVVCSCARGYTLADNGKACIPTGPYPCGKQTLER

As for `Nc1nccc2ccc(OCCNC(=O)c3ccc(C(=O)N4CCCC4)cc3)cc12` [Compound of Ex. 2, N-[2-(1-aminoisoquinoline-7-yloxy)ethyl]-4-(1-pyrrolidinecarbonyl)benzamide mono-trifluoroacetate], the “Blood anticoagulating activity (PT2)” value in assay [1] came out at 5.5. The IC50 was 0.251 µM in assay [2] and 251 µM at human thrombin.

Regarding `Nc1nccc2ccc(OC[C@@H](CCC(=O)O)NC(=O)c3ccc(C(=O)N4CCCC4)cc3)cc12` [Compound of Ex. 16, (4R)-5-(1-aminoisoquinoline-7-yloxy)-4-[4-(1-pyrrolidinecarbonyl)benzoylamino]pentanoic acid mono-trifluoroacetate], the “Blood anticoagulating activity (PT2)” value in assay [1] was determined as 5.6. The IC50 is 0.0794 µM in assay [2] and > 1000 µM at human thrombin.

As to `CCOC(=O)CC[C@H](COc1ccc2ccnc(N)c2c1)NC(=O)c1ccc(C(=O)N2CCCC2)cc1` [Compound of Ex. 17, ethyl (4R)-5-(1-aminoisoquinoline-7-yloxy)-4-[4-(1-pyrrolidinecarbonyl)benzoylamino]pentanoate mono-trifluoroacetate], the results for the IC50 (in assay [2]; on human thrombin) were 0.251 µM and 316 µM, respectively.

Regarding `Nc1nccc2ccc(OC[C@@H](CCC(=O)O)NC(=O)C3CCN(c4ccncc4)CC3)cc12` [Compound of Ex. 21, (4R)-5-(1-aminoisoquinoline-7-yloxy)-4-[(1-(4-pyridyl)-4-piperidine)carbamido]pentanoic acid bistrifluoroacetate], the IC50 is 0.158 µM in assay [2] and 316 µM at human thrombin.

For the compound `Nc1nccc2cc(CC(=O)C(=O)O)c(OCCNC(=O)c3ccc(C(=O)N4CCCC4)cc3)cc12` [Compound of Ex. 23, 3-[1-amino-(2-(4-(1-pyrrolidinecarbonyl)benzoylamino)ethoxy)isoquinoline-6-yl]-2-oxopropionic acid mono-trifluoroacetate], the results for the IC50 (in assay [2]; on human thrombin) were 0.0251 µM and 15.8 µM, respectively.

On to `N=C(N)Nc1ccc(C(=O)N[C@H](CCC(=O)O)COc2ccc3ccnc(N)c3c2)cc1` [Compound of Ex. 25, (4R)-5-(1-aminoisoquinoline-7-yloxy)-4-[4-(guanidino)benzoylamino]pentanoic acid mono-trifluoroacetate], for which the IC50 in assay [2] is 0.398 µM; on human thrombin, 794 µM.

As to `CC(=N)N1CCC(Oc2ccc(C(=O)NCCOc3cc4c(N)nccc4cc3CC(=O)C(=O)O)cc2)CC1` [Compound of Ex. 26, 3-[1-amino-7-(2-(4-(1-acetimidoyl-4-piperidyloxy)benzoylamino)ethoxy)isoquinoline-6-yl]-2-oxopropionic acid bistrifluoroacetate], the “Blood anticoagulating activity (PT2)” value in assay [1] amounted to 6.2. Besides, the IC50 in assay [2] was 0.2 µM; at human thrombin it was > 501 µM.

In the case of `Nc1nccc2cc(CC(=O)C(=O)O)c(OCCNC(=O)C3CCN(c4ccncc4)CC3)cc12` [Compound of Ex. 27, 3-[1-amino-7-(2-(4-(1-(4-pyridyl)-4-piperidine)carbonylamino)ethoxy)isoquinoline-6-yl]-2-oxopropionic acid bistrifluoroacetate], the “Blood anticoagulating activity (PT2)” value in assay [1] came out at 6.2. Moreover, the IC50 was 0.251 µM in assay [2] and > 501 µM at human thrombin.
